# Results taken from ChEMBL document CHEMBL1201862, “PubChem BioAssay data set” (2004).
# The source made the active and inactive calls.
# Assays:
# DNA topoisomerase = DNA topoisomerase (Yersinia pestis, UniProt A0A2S9PM60); assay: Yersinia topoisomerase I cleavage product accumulation – biochemical, cherry-pick, dose response (AID 588525)
# HeLa = assay: toxicity to human HeLa cells – cell-based, 48 h, plate reader, cherry-picks, cytotoxicity control, dose response (AID 504942); type: functional
# [1] = target: Acyl-homoserine lactone acylase PvdQ (Pseudomonas aeruginosa (strain LESB58), UniProt Q9I194); assay: PvdQ acylase enzyme activity blockers – biochemical, fluorescence, plate reader and imaging, cherry-picks, dose response (AID 493231)
# Chain of Acyl-homoserine lactone acylase PvdQ (Q9I194 24-193 limits assumed): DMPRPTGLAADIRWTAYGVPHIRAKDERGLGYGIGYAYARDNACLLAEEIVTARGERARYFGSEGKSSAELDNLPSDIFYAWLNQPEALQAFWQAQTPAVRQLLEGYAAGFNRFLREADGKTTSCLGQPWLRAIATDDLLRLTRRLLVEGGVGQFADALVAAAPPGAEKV
# Chain of Acyl-homoserine lactone acylase PvdQ (Q9I194 217-762 limits assumed): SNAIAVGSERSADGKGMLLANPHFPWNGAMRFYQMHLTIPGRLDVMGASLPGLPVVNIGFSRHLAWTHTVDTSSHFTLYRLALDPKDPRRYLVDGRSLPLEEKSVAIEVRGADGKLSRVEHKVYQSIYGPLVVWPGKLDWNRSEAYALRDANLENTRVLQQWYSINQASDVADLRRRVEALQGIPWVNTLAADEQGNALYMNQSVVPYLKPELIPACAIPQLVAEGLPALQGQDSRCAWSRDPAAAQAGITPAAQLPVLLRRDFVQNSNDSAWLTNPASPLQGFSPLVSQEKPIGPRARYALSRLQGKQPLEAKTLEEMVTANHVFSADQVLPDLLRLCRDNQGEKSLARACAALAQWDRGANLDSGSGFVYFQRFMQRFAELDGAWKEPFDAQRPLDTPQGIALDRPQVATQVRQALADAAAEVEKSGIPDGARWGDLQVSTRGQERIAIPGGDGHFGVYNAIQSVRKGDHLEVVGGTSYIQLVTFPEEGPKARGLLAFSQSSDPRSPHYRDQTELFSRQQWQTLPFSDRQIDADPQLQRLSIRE
# Hexokinase HKDC1 = target: T1, Hexokinase HKDC1 (Homo sapiens, UniProt Q2TB90); assay: SAR analysis of small molecule inhibitors of hexokinase domain containing I (HKDC1). [Related pubchem assays (depositor defined):AID493160, AID493190]; type: functional
# T1 sequence (Q2TB90 whole entry): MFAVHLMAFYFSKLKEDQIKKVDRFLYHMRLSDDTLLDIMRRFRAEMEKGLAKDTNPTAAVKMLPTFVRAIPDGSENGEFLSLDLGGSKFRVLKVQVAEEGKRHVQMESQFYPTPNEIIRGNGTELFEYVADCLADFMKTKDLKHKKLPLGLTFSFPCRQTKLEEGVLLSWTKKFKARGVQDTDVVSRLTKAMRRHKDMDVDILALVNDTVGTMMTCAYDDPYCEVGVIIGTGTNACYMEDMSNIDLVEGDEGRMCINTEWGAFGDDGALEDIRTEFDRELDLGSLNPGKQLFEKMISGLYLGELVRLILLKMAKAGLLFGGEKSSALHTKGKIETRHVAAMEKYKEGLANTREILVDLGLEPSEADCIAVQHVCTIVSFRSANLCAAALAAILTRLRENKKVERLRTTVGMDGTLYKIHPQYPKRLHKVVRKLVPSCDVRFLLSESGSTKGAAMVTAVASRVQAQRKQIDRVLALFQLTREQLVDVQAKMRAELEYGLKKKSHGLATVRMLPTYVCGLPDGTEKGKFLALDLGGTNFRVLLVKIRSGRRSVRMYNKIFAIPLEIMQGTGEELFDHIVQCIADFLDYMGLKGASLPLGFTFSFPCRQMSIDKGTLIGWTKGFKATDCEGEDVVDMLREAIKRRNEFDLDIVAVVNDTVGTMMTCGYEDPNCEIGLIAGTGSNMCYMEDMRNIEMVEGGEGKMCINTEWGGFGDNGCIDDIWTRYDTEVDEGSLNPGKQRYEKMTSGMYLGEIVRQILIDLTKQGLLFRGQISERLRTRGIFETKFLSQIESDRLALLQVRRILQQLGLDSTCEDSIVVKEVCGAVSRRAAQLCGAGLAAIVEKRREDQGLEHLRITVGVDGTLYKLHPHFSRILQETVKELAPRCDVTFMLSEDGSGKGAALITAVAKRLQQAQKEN
# Hexokinase-1 = target: T2, Hexokinase-1 (Homo sapiens, UniProt P19367); assay: SAR analysis of small molecule inhibitors of hexokinase domain containing I (HKDC1) in the hexokinase 1 selectivity assay. [Related pubchem assays (depositor defined):AID493160, AID493190]; type: functional
# T2 sequence (P19367 whole entry): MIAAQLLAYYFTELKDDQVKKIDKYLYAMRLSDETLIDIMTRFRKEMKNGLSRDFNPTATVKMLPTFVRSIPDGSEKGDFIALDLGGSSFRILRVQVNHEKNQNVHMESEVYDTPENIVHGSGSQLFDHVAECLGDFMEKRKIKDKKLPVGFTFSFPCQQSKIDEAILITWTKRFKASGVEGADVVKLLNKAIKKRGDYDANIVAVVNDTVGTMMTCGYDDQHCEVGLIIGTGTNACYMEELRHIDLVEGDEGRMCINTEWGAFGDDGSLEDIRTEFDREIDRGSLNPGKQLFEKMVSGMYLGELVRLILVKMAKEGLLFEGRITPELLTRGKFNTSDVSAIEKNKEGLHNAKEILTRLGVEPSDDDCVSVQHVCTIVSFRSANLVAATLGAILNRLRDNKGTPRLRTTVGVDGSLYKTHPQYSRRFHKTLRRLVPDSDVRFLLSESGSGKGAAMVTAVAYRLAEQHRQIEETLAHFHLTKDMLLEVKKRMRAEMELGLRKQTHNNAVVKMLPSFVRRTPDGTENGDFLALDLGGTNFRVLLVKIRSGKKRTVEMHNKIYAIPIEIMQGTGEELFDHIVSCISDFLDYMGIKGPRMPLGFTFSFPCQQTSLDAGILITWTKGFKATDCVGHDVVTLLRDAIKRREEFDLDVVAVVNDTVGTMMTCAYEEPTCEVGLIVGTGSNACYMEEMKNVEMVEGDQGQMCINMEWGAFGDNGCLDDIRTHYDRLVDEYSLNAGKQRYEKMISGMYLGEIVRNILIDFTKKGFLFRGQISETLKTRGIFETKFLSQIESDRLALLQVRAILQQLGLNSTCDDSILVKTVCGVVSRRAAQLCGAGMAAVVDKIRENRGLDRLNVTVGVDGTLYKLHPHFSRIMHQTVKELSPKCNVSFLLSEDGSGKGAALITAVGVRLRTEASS
# Chain of DNA topoisomerase (A0A2S9PM60 whole entry): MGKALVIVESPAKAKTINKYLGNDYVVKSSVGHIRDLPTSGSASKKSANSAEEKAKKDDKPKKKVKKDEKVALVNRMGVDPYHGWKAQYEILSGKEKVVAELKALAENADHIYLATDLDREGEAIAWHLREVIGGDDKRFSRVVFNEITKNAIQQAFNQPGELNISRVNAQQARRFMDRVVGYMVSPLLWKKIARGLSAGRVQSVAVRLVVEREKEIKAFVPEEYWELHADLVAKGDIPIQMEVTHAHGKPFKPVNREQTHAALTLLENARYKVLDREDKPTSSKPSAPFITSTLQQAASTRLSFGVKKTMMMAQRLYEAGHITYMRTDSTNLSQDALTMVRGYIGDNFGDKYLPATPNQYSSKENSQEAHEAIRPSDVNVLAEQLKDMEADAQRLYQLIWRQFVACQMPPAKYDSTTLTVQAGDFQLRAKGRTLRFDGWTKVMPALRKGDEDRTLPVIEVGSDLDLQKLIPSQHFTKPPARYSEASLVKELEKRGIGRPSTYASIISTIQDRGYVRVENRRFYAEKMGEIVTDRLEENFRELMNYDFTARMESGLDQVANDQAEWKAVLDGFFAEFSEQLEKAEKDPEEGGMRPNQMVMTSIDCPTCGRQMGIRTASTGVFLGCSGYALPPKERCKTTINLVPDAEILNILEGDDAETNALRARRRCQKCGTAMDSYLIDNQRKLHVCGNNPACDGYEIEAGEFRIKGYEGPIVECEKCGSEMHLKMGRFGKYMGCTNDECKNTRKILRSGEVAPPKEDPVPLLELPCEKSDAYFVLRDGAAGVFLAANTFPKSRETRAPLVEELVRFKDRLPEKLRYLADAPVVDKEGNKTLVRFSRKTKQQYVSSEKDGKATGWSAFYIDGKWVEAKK
smiles,measurement,setting,value
Cc1cc(NC(=O)c2cc(-c3ccccc3)on2)n(-c2ccccc2)n1,AC50,DNA topoisomerase,4.16 µM (active)
Cc1cccc(NC(=O)c2ccc3c(c2)OCCO3)n1,AC50,HeLa,94.1 µM (active)
same,AC50,[1],10.2 µM (active)
Cc1ccccc1/C=C/c1nc2ccccc2c(=O)n1Cc1ccccc1,IC50,Hexokinase HKDC1,> 80 µM (inactive)
same,IC50,Hexokinase-1,> 80 µM (inactive)
